One experiment deals with MAGL (Mus musculus (Mouse), UniProt O35678). The experiment can be described thus: In vitro competitive activity-based protein profiling, MAGL (mouse). The format is biochemical. The conditions noted are these: for inhibition at 1 µM: read-out: MAGL % inh. 1 μM (mouse). The procedure, abridged: (§1)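 Residual MAGL and FAAH activity came from in-gel fluorescence after competition between inhibitor (30 min preincubation, 37° C) and the activity-based probe FP-Rh or HT-01 (30 min, 37° C) in mouse or human tissue or cell proteomes.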

The next experiment deals with FAAH (Mus musculus (Mouse), UniProt O08914). Nature of the experiment: In vitro competitive activity-based protein profiling, FAAH (mouse). The format is biochemical. The conditions noted are these: for inhibition at 1 µM: read-out: FAAH % inh. 1 μM (mouse). The method in brief:
as §1

Each structure is given as a SMILES string.

Sequence of MAGL (O35678 whole entry): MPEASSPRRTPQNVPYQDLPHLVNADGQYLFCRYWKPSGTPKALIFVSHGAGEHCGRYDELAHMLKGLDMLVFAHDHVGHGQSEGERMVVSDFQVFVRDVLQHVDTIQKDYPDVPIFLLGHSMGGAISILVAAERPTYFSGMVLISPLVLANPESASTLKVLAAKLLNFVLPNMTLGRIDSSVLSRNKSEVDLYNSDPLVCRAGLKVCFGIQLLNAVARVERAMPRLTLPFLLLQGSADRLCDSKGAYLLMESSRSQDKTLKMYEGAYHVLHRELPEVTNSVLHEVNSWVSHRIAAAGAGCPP
Sequence of FAAH (O08914 whole entry): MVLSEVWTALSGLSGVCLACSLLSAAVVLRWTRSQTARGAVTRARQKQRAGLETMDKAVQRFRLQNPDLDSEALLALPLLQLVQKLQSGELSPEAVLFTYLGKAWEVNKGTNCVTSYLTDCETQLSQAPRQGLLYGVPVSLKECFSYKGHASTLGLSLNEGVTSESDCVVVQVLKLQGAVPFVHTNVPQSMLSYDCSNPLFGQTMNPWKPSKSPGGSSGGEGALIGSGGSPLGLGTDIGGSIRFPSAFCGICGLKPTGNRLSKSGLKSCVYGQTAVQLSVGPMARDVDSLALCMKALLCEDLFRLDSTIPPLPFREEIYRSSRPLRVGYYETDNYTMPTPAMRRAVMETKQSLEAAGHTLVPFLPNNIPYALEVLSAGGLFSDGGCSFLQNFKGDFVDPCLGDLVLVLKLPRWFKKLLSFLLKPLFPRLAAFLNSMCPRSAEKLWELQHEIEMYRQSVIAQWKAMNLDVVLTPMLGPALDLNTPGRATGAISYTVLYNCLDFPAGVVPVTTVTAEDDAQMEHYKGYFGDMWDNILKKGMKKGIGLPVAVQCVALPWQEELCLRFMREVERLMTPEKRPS

Broadly, the IC50 is the point on the concentration scale where inhibition reaches its midpoint. Turning to `CC(=O)N(C)c1cnn(C(=O)N2C[C@H]3C[C@@H](N(C)Cc4cccc(Cl)c4)C[C@H]3C2)c1` [Example 141, N-(1-(cis-5-((3-chlorobenzyl)(methyl)amino)octahydrocyclopenta[c]pyrrole-2-carbonyl)-1H-pyrazol-4-yl)-N-methylacetamide], on MAGL, the IC50 is 100 to 1000 nM and the inhibition at 1 µM was 50 to 75%. Further, on FAAH, the 50% inhibitory concentration (IC50) was at most 100 nM and the inhibition at 1 µM is at least 75%.

As for `CC(=O)N(C)c1cnn(C(=O)N2C[C@H]3C[C@H](N(C)Cc4cc(N5CCCC5)ccc4C(F)(F)F)C[C@H]3C2)c1` [Example 142, N-methyl-N-(1-(trans-5-(methyl(5-(pyrrolidin-1-yl)-2-(trifluoromethyl)benzyl)amino)octahydrocyclopenta[c]pyrrole-2-carbonyl)-1H-pyrazol-4-yl)acetamide], the inhibition at 1 µM at MAGL and on FAAH was at least 75% throughout.

Turning to `CC(=O)N(C)c1cnn(C(=O)N2C[C@H]3C[C@@H](N(C)Cc4ccc(Cl)cc4)C[C@H]3C2)c1` [Example 143, N-(1-(cis-5-((4-chlorobenzyl)(methyl)amino)octahydrocyclopenta[c]pyrrole-2-carbonyl)-1H-pyrazol-4-yl)-N-methylacetamide], on MAGL, the IC50 lay in the range of 100 to 1000 nM and the inhibition at 1 µM was at least 75%. Also, on FAAH, the IC50 lay within 100 to 1000 nM and the inhibition at 1 µM is at least 75%.

Take `CC(=O)N(C)c1cnn(C(=O)N2C[C@H]3C[C@H](N(C)Cc4cc(C(F)(F)F)ccc4N4CCCC4)C[C@H]3C2)c1` [Example 144, N-methyl-N-(1-(trans-5-(methyl(2-(pyrrolidin-1-yl)-5-(trifluoromethyl)benzyl)amino)octahydrocyclopenta[c]pyrrole-2-carbonyl)-1H-pyrazol-4-yl)acetamide]: the results for the inhibition at 1 µM at MAGL and at FAAH were at least 75% and 50 to 75%, respectively.

In the case of `CC(=O)N(C)c1cnn(C(=O)N2C[C@H]3C[C@H](N(C)Cc4ccccc4Cl)C[C@H]3C2)c1` [Example 145, N-(1-(trans-5-((2-chlorobenzyl)(methyl)amino)octahydrocyclopenta[c]pyrrole-2-carbonyl)-1H-pyrazol-4-yl)-N-methylacetamide], on MAGL, the IC50 was at most 100 nM and the inhibition at 1 µM was at least 75%. Besides, at FAAH, the IC50 is at most 100 nM and the inhibition at 1 µM was at least 75%.

In the case of `CC(=O)N(C)c1cnn(C(=O)N2C[C@H]3C[C@H](N(C)Cc4cc(C(F)(F)F)ccc4C(F)(F)F)C[C@H]3C2)c1` [Example 146, N-(1-(trans-5-((2,5-bis(trifluoromethyl)benzyl)(methyl)amino)octahydrocyclopenta[c]pyrrole-2-carbonyl)-1H-pyrazol-4-yl)-N-methylacetamide], the inhibition at 1 µM on MAGL and on FAAH was at least 75% throughout.

With `CC(=O)N(C)c1cnn(C(=O)N2C[C@H]3C[C@H](N(C)Cc4cccc(Cl)c4)C[C@H]3C2)c1` [Example 147, N-(1-(trans-5-((3-chlorobenzyl)(methyl)amino)octahydrocyclopenta[c]pyrrole-2-carbonyl)-1H-pyrazol-4-yl)-N-methylacetamide], the IC50 on MAGL and at FAAH was at most 100 nM throughout. The inhibition at 1 µM at MAGL and at FAAH was at least 75% each time.

Take `CC(=O)N(C)c1cnn(C(=O)N2C[C@H]3C[C@@H](N(C)Cc4ccc(N5C6CCC5COC6)cc4C(F)(F)F)C[C@H]3C2)c1` [Example 149, N-(1-(cis-5-((4-(3-oxa-8-azabicyclo[3.2.1]octan-8-yl)-2-(trifluoromethyl)benzyl)(methyl)amino)octahydrocyclopenta[c]pyrrole-2-carbonyl)-1H-pyrazol-4-yl)-N-methylacetamide]: the inhibition at 1 µM at MAGL and at FAAH was at least 75% throughout.

Consider `CC(=O)N(C)c1cnn(C(=O)N2C[C@H]3C[C@@H](N(C)Cc4ccc(N5C6CCC5COC6)c(C(F)(F)F)c4)C[C@H]3C2)c1` [Example 150, N-(1-(cis-5-((4-(3-oxa-8-azabicyclo[3.2.1]octan-8-yl)-3-(trifluoromethyl)benzyl)(methyl)amino)octahydrocyclopenta[c]pyrrole-2-carbonyl)-1H-pyrazol-4-yl)-N-methylacetamide], for which, on MAGL, the IC50 is 100 to 1000 nM and the inhibition at 1 µM is at least 75%. Moreover, at FAAH, the half-maximal inhibitory concentration (IC50) was at most 100 nM and the inhibition at 1 µM was at least 75%.

With `CC(=O)N(C)c1cnn(C(=O)N2C[C@H]3C[C@@H](N(C)Cc4cc(N5C6CCC5COC6)cc(C(F)(F)F)c4)C[C@H]3C2)c1` [Example 151, N-(1-(cis-5-((3-(3-oxa-8-azabicyclo[3.2.1]octan-8-yl)-5-(trifluoromethyl)benzyl)(methyl)amino)octahydrocyclopenta[c]pyrrole-2-carbonyl)-1H-pyrazol-4-yl)-N-methylacetamide], on MAGL, the half-maximal inhibitory concentration (IC50) lay in the range of 100 to 1000 nM and the inhibition at 1 µM is at least 75%. Further, at FAAH, the IC50 fell in the range of 100 to 1000 nM and the inhibition at 1 µM was at least 75%.

Turning to `CC(=O)N(C)c1cnn(C(=O)N2C[C@H]3C[C@@H](N(C)Cc4ccc(N5CCCC5)cc4C(F)(F)F)C[C@H]3C2)c1` [Example 152, N-methyl-N-(1-(cis-5-(methyl(4-(pyrrolidin-1-yl)-2-(trifluoromethyl)benzyl)amino)octahydrocyclopenta[c]pyrrole-2-carbonyl)-1H-pyrazol-4-yl)acetamide], the inhibition at 1 µM on MAGL and at FAAH was at least 75% each time.

As to `CC(=O)N(C)c1cnn(C(=O)N2C[C@H]3C[C@@H](N(C)Cc4ccc(N5CCCC5)c(C(F)(F)F)c4)C[C@H]3C2)c1` [Example 153, N-methyl-N-(1-(cis-5-(methyl(4-(pyrrolidin-1-yl)-3-(trifluoromethyl)benzyl)amino)octahydrocyclopenta[c]pyrrole-2-carbonyl)-1H-pyrazol-4-yl)acetamide], the inhibition at 1 µM on MAGL and on FAAH was at least 75% each time.

`CC(=O)N(C)c1cnn(C(=O)N2C[C@H]3C[C@@H](N(C)Cc4cc(N5CCCC5)cc(C(F)(F)F)c4)C[C@H]3C2)c1` [Example 154, N-methyl-N-(1-(cis-5-(methyl(3-(pyrrolidin-1-yl)-5-(trifluoromethyl)benzyl)amino)octahydrocyclopenta[c]pyrrole-2-carbonyl)-1H-pyrazol-4-yl)acetamide]: the inhibition at 1 µM at MAGL and at FAAH was at least 75% in each case.

For the compound `CC(=O)N(C)c1cnn(C(=O)N2C[C@H]3C[C@H](N(C)Cc4ccc(N5C6CCC5COC6)cc4C(F)(F)F)C[C@H]3C2)c1` [Example 155, N-(1-(trans-5-((4-(3-oxa-8-azabicyclo[3.2.1]octan-8-yl)-2-(trifluoromethyl)benzyl)(methyl)amino)octahydrocyclopenta[c]pyrrole-2-carbonyl)-1H-pyrazol-4-yl)-N-methylacetamide], the inhibition at 1 µM on MAGL and on FAAH was at least 75% throughout.

In the case of `CC(=O)N(C)c1cnn(C(=O)N2C[C@H]3C[C@H](N(C)Cc4ccc(N5C6CCC5COC6)c(C(F)(F)F)c4)C[C@H]3C2)c1` [Example 156, N-(1-(trans-5-((4-(3-oxa-8-azabicyclo[3.2.1]octan-8-yl)-3-(trifluoromethyl)benzyl)(methyl)amino)octahydrocyclopenta[c]pyrrole-2-carbonyl)-1H-pyrazol-4-yl)-N-methylacetamide], on MAGL, the concentration for half-maximal inhibition (IC50) lay within 100 to 1000 nM and the inhibition at 1 µM was at least 75%. Moreover, at FAAH, the IC50 was at most 100 nM and the inhibition at 1 µM was at least 75%.

Consider `CC(=O)N(C)c1cnn(C(=O)N2C[C@H]3C[C@H](N(C)Cc4cc(N5C6CCC5COC6)cc(C(F)(F)F)c4)C[C@H]3C2)c1` [Example 157, N-(1-(trans-5-((3-(3-oxa-8-azabicyclo[3.2.1]octan-8-yl)-5-(trifluoromethyl)benzyl)(methyl)amino)octahydrocyclopenta[c]pyrrole-2-carbonyl)-1H-pyrazol-4-yl)-N-methylacetamide], for which the inhibition at 1 µM at MAGL and at FAAH was at least 75% in each case.

`CC(=O)N(C)c1cnn(C(=O)N2C[C@H]3C[C@H](N(C)Cc4ccc(N5CCCC5)cc4C(F)(F)F)C[C@H]3C2)c1` [Example 158, N-methyl-N-(1-(trans-5-(methyl(4-(pyrrolidin-1-yl)-2-(trifluoromethyl)benzyl)amino)octahydrocyclopenta[c]pyrrole-2-carbonyl)-1H-pyrazol-4-yl)acetamide]: the inhibition at 1 µM at MAGL and on FAAH was at least 75% in each case.

As to `CC(=O)N(C)c1cnn(C(=O)N2C[C@H]3C[C@H](N(C)Cc4ccc(N5CCCC5)c(C(F)(F)F)c4)C[C@H]3C2)c1` [Example 159, N-methyl-N-(1-(trans-5-(methyl(4-(pyrrolidin-1-yl)-3-(trifluoromethyl)benzyl)amino)octahydrocyclopenta[c]pyrrole-2-carbonyl)-1H-pyrazol-4-yl)acetamide], the inhibition at 1 µM at MAGL and at FAAH was at least 75% in each case.

In the case of `CC(=O)N(C)c1cnn(C(=O)N2C[C@H]3C[C@H](N(C)Cc4cc(N5CCCC5)cc(C(F)(F)F)c4)C[C@H]3C2)c1` [Example 160, N-methyl-N-(1-(trans-5-(methyl(3-(pyrrolidin-1-yl)-5-(trifluoromethyl)benzyl)amino)octahydrocyclopenta[c]pyrrole-2-carbonyl)-1H-pyrazol-4-yl)acetamide], the inhibition at 1 µM on MAGL and at FAAH was at least 75% throughout.

Source of the values: patent publication US10323038B2, “Pyrazole compounds and methods of making and using same” (ABIDE THERAPEUTICS, INC., priority 2015, dated 2019).
